Converted amounts (≈) assume the structure as drawn. “And” between values parts separate entries of the source, which are not always exact repeats. Equal entries are not always repeated.

Here are results for five molecules from publication PMC11359531, “Establishment of Dissolution Test Method for Multi-Components in Traditional Chinese Medicine Preparations Based on In Vitro–In Vivo Correlation” (Pharmaceuticals, 2024).

A short description of data set [1]: Unit impulse response (UIR) fitting of pharmacokinetic data. The note with it: best-fitted UIR, Akaike model.
Source text: The Phoenix WinNonlin IVIVC tool was utilized to evaluate the relationship between in vivo drug dissolution rate and blood drug concentration, which utilizes the Unit Impulse Response (UIR) function for this purpose. By using intravenous administration as the input for the unit impulse response, the influence of drug absorption can be eliminated. The obtained UIR function will be utilized for the deconvolution of pharmacokinetic data to obtain the curve of cumulative drug absorption over time [50]. (8) Y(t)=A×exp[Alpha×(t×Ka−tlag)] in which Y(t) is unit impulse response, A is the coefficient value, Alpha is the exponential value, Ka is the absorption rate constant, tlag is the lag time.
Data set [2] is described as follows: External validation of IVIVC model with another brand of YZTs. The note with it: beagle, dog, blood, po.
Source text: In order to further apply the identified in vivo correlated dissolution conditions to different batches of YZTs, another brand of YZTs was selected for external validation of the dissolution conditions and IVIVC model results. The dissolution data of different brands in the identified media were input into the established IVIVC model to obtain the predicted blood concentration–time curve and to compare the PE% between the predicted value and the actual value.
A short description of data set [3]: Solubility of Q-markers in dissolution media, dose number D0. The note with it: for solubility at 24 h: thermodynamic from solid.
Procedure: The solubility of the compounds was determined at physiologically relevant pH values (0.1 M of HCl, pH 1.2; acetate buffer, pH 4.5; and phosphate buffer, pH 6.8) as those in dissolution medium, by adding excess compounds to specific medium, vortexing for 30 s, and shaking for 24 h at 37 °C and 120 rpm using a constant temperature shaker. The supernatant was then diluted with an appropriate amount of methanol, and the concentration of each compound was determined using the HPLC method described in Section 3.2. The solubility was evaluated using the dose (D0) values [48], which describe the relationship between solubility and maximum dose strength according to Equation (1). […] (1) D0=M0/V0/CS
M0 was the highest dose of each component under single administration, it should be noted that since there is no sense of the maximum oral dose for the ingredients in herbal preparation, the content of each component in a single dose of the preparation is taken as the maximum administered dose.
Data set [4] in a line: Caco-2 transport assay (Peff). As to conditions: human. Background: Caco-2 cells form a polarised layer with tight junctions and transporters.
A short description of data set [5]: Pharmacokinetic study of the Q-markers in beagle dogs. The note with it: dog. As for the experimental part:
An ACQUITY UPLC system from Waters was used for chromatography separation, equipped with a Waters Cortecs C18 column (1.7 μm, 2.1 mm × 50 mm) operated at a flow rate of 0.30 mL/min. The column temperature and auto-sampler temperature were set as 45 °C and 4 °C, respectively. The mobile phases were 10 mM ammonium acetate solution (pH 5.0 by acetic acid) (A) and acetonitrile (B) and the gradient elution used was as follows: 30–39% B from 0–3.3 min, 39–95% B from 3.3–5.4 min, 95% B from 5.4–7.4 min, 95–30% B from 7.4–13.5 min, and 30% B from 13.5–16.0 min. The injection volume was 3 μL. The AB SCIEX Qtrap™ 6500 LC-MS/MS system with electron spray ionization (ESI) source in multiple reaction monitoring (MRM) mode was used for MS analysis. The detection was performed under the following conditions: source temperature (at set point) at 550.0 °C, positive ion mode, GS1 at 40 psi, GS2 at 40 psi, CUR at 45 psi, CXP at 15 V, DP at 100 V, and EP at 10 V. Quantitative analysis of analytes in MRM mode was used to determine the transition of precursor ions to specific product ions (m/z): tetrahydropalmatine, m/z […] [M + H]+ → m/z 229.0 (collision energy, CE: 17 V), corydaline, m/z […] (CE: 17 V), protopin, m/z […] [M + H]+ → m/z 227.1 (CE: 23 V), allocryptopine, m/z […] [M + H]+ → m/z 373.2 (CE: 17 V), and byakangelicin, m/z 389.2 [M + H]+ → m/z 363.1 (CE: 17 V). The data were processed using MultiQuant™ 2.1 software purchased from SCIEX.
The standard solutions of tetrahydropalmatine, corydaline, protopin, α-allocryptopine, and byakangelicin were prepared by dissolving them in acetonitrile to obtain a mixed standard stock solution, which was further diluted with acetonitrile to prepare a series of different concentration gradient mixed standard solutions. An internal standard solution of 25 ng/mL was prepared from betamethasone solution (500 μg/mL) diluted with acetonitrile. Blank dog blood was collected through intravenous blood sampling, and plasma was obtained by centrifugation. To prepare the standard plasma sample, 25 μL of the mixed standard solution was added to 100 μL of blank plasma, and 400 μL of acetonitrile was added and vortexed for protein precipitation. The supernatant was acquired by centrifugation and blown dry with nitrogen. Then, 100 μL of acetonitrile was added to the dried supernatant, and the resulting solution was mixed to gain the standard plasma sample. Different mixed standard solution including a serial of concentrations of tetrahydropalmatine: 0.625–25 ng/mL, corydaline: 0.625–25 ng/mL, protopin: 0.1–4 ng/mL, α-allocryptopine: 0.1–4 ng/mL, byakangelicin: 18.75–750 ng/mL were applied to prepare standard plasma sample and quality control (QC) samples of plasma as follows: 1.25, 5, and 20 ng/mL for tetrahydropalmatine and corydaline, 0.2, 0.8, and 3.2 ng/mL for protopin and α-allocryptopine, and 37.5, 150, and 600 ng/mL for byakangelicin.
For pharmacokinetic study, six beagle dogs were used and housed in a professional animal breeding room with a relative humidity of 55–60% and a temperature of 25 °C for one week. The experimental operation was carried out in accordance with ethical requirements for animal experiments and approved by the Institutional Animal Care and Use Committee of the School of Pharmacy, Fudan University. The dogs had free access to drinking water and were fasted for 24 h before the experiment. The dogs were randomly divided into two groups, one group receiving an oral dose of 12 tablets with brand A (tetrahydropalmatine 2.5 mg, corydaline 0.963 mg, protopin 1.896 mg, α-allocryptopine 0.917 mg, and byakangelicin 2.783 mg), while the other group were given an intravenous dose of 2 mL of normal saline containing tetrahydropalmatine 19.75 μg, corydaline 4.54 μg, protopin 168.062 μg, α-allocryptopine 297.16 μg, and byakangelicin 78.68 μg. Blood samples of 2 mL were taken at 15, 30, 45, 60, 90, 120, 150, 180, 240, 360, 480, 720, and 1440 min after dosing.

[6] abbreviates: 0.1 M HCl, 37 °C, pH 1.2, simulated gastric fluid.
[7] abbreviates: acetate buffer, 37 °C, pH 4.5, aqueous buffer.
Setting [8] is: phosphate buffer, 37 °C, pH 6.8, aqueous buffer.
[9] abbreviates: D0 = M0/V0/Cs, V0 = 250 mL, content of a single dose of YZTs.

Consider `COc1c2ccoc2c(OC[C@@H](O)C(C)(C)O)c2oc(=O)ccc12` [Byakangelicin, byakangelicin], for which, in data set [1], the “UIR parameter A1, Estimate” value was 0.02 ng/mL; the “UIR parameter Ka, Estimate” value is 2.23 h⁻¹; the “UIR parameter Tlag, Estimate” value is on record as 0.45 h; the “UIR parameter alpha1, Estimate” value is 1.18 h⁻¹. In data set [2], the AUC is 54.5 ng·h/mL and the peak level (Cmax) was 29.6 ng/mL. Further, the solubility at 24 h in data set [3] (setting [6]) is 2660 ± 56 µg/mL (≈ 7960 µM). Moreover, the concentration in solution in data set [3] (setting [7]) (solubility at 24 h) was 1290 ± 87.4 µg/mL (≈ 3860 µM). This molecule displayed a solubility at 24 h in data set [3] (setting [8]) of 7.63 ± 1.27 µg/mL (≈ 22.8 µM). The molecule also gave a solubility at 24 h in data set [3] (water) of 35.9 ± 5.85 µg/mL (≈ 107 µM). In data set [4], this molecule returned an apparent permeability coefficient (Papp) at 120 min of 8.95 ×10⁻⁶ cm/s. In addition, in data set [5] (beagle, plasma, iv), the total exposure AUC(0-inf) is 11.7 ng·h/mL, the AUC(0-t) was 11.1 ng·h/mL, the Cmax turned out to be 11.8 ng/mL and the Tmax was 0.0833 h. The same molecule gave a half-life in data set [5] (beagle, plasma, iv) of 0.775 h. In data set [5] (beagle, plasma, po), this molecule showed an AUC of 59.7 ng·h/mL, an AUC(0-inf) of 65.3 ng·h/mL, an AUC(0-t) of 59.7 ng·h/mL and a Cmax of 27.3 ng/mL. For the same molecule, in data set [5] (beagle, plasma, po), the Tmax was 1 h, the bioavailability stood at 3.81% and the half-life was determined as 3.29 h.
As for `COc1cc2c(cc1OC)[C@H]1[C@@H](C)c3ccc(OC)c(OC)c3CN1CC2` [Corydaline, corydaline], in data set [1], the “UIR parameter A1, Estimate” value is 0.05 ng/mL; the “UIR parameter Ka, Estimate” value was 1.46 h⁻¹; the “UIR parameter Tlag, Estimate” value is recorded as 0.44 h; the “UIR parameter alpha1, Estimate” value is 1.42 h⁻¹. In data set [2], this molecule had an AUC of 34.3 ng·h/mL and a Cmax of 12 ng/mL. This molecule also returned a solubility at 24 h in data set [3] (setting [6]) of over 2380 µg/mL. Further, the solubility at 24 h in data set [3] (setting [7]) was over 2380 µg/mL. This molecule showed a solubility at 24 h in data set [3] (setting [8]) of 2380 ± 348 µg/mL (≈ 6460 µM). Besides, the solubility at 24 h in data set [3] (water) amounted to 5.03 ± 0.85 µg/mL (≈ 13.6 µM). The same molecule registered a Papp at 120 min in data set [4] of 3.94 ×10⁻⁶ cm/s. Further, in data set [5] (beagle, plasma, iv), the total exposure AUC(0-inf) was 7.18 ng·h/mL, the AUC(0-t) is 6.5 ng·h/mL, the Cmax worked out at 5.01 ng/mL and the Tmax is 0.0833 h. In data set [5] (beagle, plasma, iv), this molecule came in with a half-life of 3.96 h. In data set [5] (beagle, plasma, po), this molecule gave an AUC of 74.2 ng·h/mL, an AUC(0-inf) of 81.1 ng·h/mL, an AUC(0-t) of 74.2 ng·h/mL and a Cmax of 24.8 ng/mL. Also, in data set [5] (beagle, plasma, po), the Tmax is 1.5 h, the bioavailability worked out at 5.38% and the half-life was 8.74 h.
In data set [2], `COc1cc2c(cc1OC)[C@@H]1Cc3ccc(OC)c(OC)c3CN1CC2` [Tetrahydropalmatine, tetrahydropalmatine] gave an AUC of 59.9 ng·h/mL and a Cmax of 16.4 ng/mL. Besides, the solubility at 24 h in data set [3] (setting [6]) was 655 ± 43.3 µg/mL (≈ 1840 µM). The solubility at 24 h in data set [3] (setting [7]) stood at 2670 ± 539 µg/mL (≈ 7500 µM). The molecule further registered a solubility at 24 h in data set [3] (setting [8]) of 19.7 ± 1.87 µg/mL (≈ 55.4 µM). Also, in data set [3] (water), the concentration in solution (solubility at 24 h) was 18.9 ± 1.57 µg/mL (≈ 53.1 µM). The molecule further returned a Papp at 120 min in data set [4] of 3.76 ×10⁻⁶ cm/s. Further, in data set [5] (beagle, plasma, iv), the AUC(0-inf) was 10.9 ng·h/mL, the AUC(0-t) is 9.87 ng·h/mL, the Cmax worked out at 11.4 ng/mL and the Tmax was 0.0833 h. Also, in data set [5] (beagle, plasma, iv), the half-life is 6.66 h. Besides, in data set [5] (beagle, plasma, po), the AUC was 136 ng·h/mL, the AUC(0-inf) was 137 ng·h/mL, the AUC(0-t) was 136 ng·h/mL and the highest level (Cmax) was 45.7 ng/mL. Further, in data set [5] (beagle, plasma, po), the Tmax was 1.5 h, the bioavailability is 10.8% and the half-life is 3.9 h.
For the molecule `COc1ccc2c(c1OC)CN(C)CCc1cc3c(cc1C(=O)C2)OCO3` [α-allocryptopine], in data set [1], the “UIR parameter A1, Estimate” value is 0 ng/mL; the “UIR parameter Ka, Estimate” value was 5.65 h⁻¹; the “UIR parameter Tlag, Estimate” value was 0.67 h; the “UIR parameter alpha1, Estimate” value is 1.13 h⁻¹. In data set [2], this molecule had an AUC of 2.04 ng·h/mL and a Cmax of 0.5 ng/mL. The molecule further gave a solubility at 24 h in data set [3] (setting [6]) of 48.7 ± 4.08 µg/mL (≈ 132 µM). In data set [3] (setting [9]), the “D0, 0.1 M HCl” value is 0.5441 and <1; the “D0, Acetate Buffer” value is 0.5786 and <1; the “D0, Phosphate Buffer” value is 0.5928 and <1. For the same molecule, the solubility at 24 h in data set [3] (setting [7]) was found to be 45.8 ± 2.56 µg/mL (≈ 124 µM). In data set [3] (setting [8]), this molecule gave a solubility at 24 h of 44.7 ± 2.17 µg/mL (≈ 121 µM). Further, the solubility at 24 h in data set [3] (water) stood at 2380 ± 521 µg/mL (≈ 6430 µM). Further, the Papp at 120 min in data set [4] amounted to 13.4 ×10⁻⁶ cm/s. Moreover, in data set [5] (beagle, in vivo, iv), the total exposure AUC(0-inf) is 39.6 ng·h/mL, the AUC(0-t) was 35.9 ng·h/mL, the Cmax came out at 32.8 ng/mL and the Tmax was 0.0833 h. Also, in data set [5] (beagle, in vivo, iv), the half-life was found to be 5.52 h. Moreover, in data set [5] (beagle, in vivo, po), the AUC was 8.31 ng·h/mL, the AUC(0-inf) is 9.12 ng·h/mL, the AUC(0-t) is 8.31 ng·h/mL and the highest level (Cmax) was 3.51 ng/mL. In data set [5] (beagle, in vivo, po), the Tmax was 1 h, the bioavailability amounted to 7.5% and the half-life stood at 8.39 h.
As to protopine, the “Bioavailability (absolute oral)” value in data set [5] (in vivo) stood at 1.35%. Further, in data set [5] (in vivo, iv), the Cl/F came out at 0.03 L/h, the Cmax is reported as 12.44 ng/mL, the T1/2 is 4.5773 h and the Tmax amounted to 0.083 h. The molecule also showed a Vz/F in data set [5] (in vivo, iv) of 0.22 L. In data set [5] (in vivo, po), the Cl/F turned out to be 0.21 L/h, the Cmax is recorded as 1.63 ng/mL, the “Observed AUC” value is listed as 205.15 and the Observed Cmax amounted to 1.63 ng/mL. In data set [5] (in vivo, po), the T1/2 amounted to 5.321 h, the Tmax came out at 1.5 h and the Vz/F is recorded as 1.64 L.

For orientation: AUC means the area under the concentration-time curve, a measure of exposure. The low end stands for less exposure, the high end for more exposure. The term Cmax denotes the peak of the concentration-time curve. By solubility is commonly meant the concentration that dissolves in the medium under given conditions. Lower therefore signals a poorly soluble substance. Usually Papp stands for the rate of passage across a membrane or cell layer, normalised by area and donor concentration. A low value points to slow passage. The term AUC(0-inf) denotes total exposure, with the tail of the curve extrapolated. Low readings indicate less exposure, high ones more exposure. Usually AUC(0-t) stands for exposure summed from dosing to a finite time, without extrapolation to infinity. Lower therefore signals low exposure. By Tmax is commonly meant the time at which the peak concentration occurs. As usually defined, the half-life is how long it takes for the measured level to halve. High values mean slow loss, low ones fast loss. As a reminder, the bioavailability is the share of a dose that reaches the circulation, judged against a reference dose that is usually intravenous.
